Results from ChEMBL document CHEMBL1201862, “PubChem BioAssay data set” (2004).
Activity calls are given as the source filed them.

Key:
[1] = target: T1, Estrogen receptor (Homo sapiens, UniProt P03372); assay: ERα coactivator recruitment enhancers – biochemical, TR-FRET, ERα LBD, dose response (AID 737)
T1 sequence (P03372 whole entry): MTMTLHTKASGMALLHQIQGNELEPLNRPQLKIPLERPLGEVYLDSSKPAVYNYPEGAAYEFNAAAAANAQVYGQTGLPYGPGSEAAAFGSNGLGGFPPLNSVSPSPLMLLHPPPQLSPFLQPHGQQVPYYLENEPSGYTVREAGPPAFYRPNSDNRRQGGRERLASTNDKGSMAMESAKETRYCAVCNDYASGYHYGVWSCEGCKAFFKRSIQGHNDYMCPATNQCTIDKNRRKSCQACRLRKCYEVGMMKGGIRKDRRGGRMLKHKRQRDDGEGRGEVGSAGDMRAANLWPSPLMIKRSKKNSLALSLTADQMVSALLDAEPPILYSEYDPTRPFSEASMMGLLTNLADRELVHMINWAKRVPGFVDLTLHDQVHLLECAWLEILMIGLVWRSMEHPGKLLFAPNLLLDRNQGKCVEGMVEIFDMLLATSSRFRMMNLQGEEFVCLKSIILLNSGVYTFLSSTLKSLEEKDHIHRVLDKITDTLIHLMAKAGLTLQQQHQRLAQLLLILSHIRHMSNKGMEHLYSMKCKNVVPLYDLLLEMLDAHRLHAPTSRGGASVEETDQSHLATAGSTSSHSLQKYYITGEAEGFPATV

[2] = target: Prothrombin (Homo sapiens, UniProt P00734); assay: Thrombin 1536 HTS Dose Response Confirmation. [Related pubchem assays: 1046 (Thrombin 1536 HTS; hits were confirmed in this assay)]; assay type: functional
[3] = target: T2, Replicative DNA helicase DnaB (Mycobacterium tuberculosis, UniProt P9WMR3); assay: DnaB intein splicing inhibitors, dose response, biochemical, cell-free fluorescence (AID 449749); assay type: functional
T2 sequence (P9WMR3 whole entry): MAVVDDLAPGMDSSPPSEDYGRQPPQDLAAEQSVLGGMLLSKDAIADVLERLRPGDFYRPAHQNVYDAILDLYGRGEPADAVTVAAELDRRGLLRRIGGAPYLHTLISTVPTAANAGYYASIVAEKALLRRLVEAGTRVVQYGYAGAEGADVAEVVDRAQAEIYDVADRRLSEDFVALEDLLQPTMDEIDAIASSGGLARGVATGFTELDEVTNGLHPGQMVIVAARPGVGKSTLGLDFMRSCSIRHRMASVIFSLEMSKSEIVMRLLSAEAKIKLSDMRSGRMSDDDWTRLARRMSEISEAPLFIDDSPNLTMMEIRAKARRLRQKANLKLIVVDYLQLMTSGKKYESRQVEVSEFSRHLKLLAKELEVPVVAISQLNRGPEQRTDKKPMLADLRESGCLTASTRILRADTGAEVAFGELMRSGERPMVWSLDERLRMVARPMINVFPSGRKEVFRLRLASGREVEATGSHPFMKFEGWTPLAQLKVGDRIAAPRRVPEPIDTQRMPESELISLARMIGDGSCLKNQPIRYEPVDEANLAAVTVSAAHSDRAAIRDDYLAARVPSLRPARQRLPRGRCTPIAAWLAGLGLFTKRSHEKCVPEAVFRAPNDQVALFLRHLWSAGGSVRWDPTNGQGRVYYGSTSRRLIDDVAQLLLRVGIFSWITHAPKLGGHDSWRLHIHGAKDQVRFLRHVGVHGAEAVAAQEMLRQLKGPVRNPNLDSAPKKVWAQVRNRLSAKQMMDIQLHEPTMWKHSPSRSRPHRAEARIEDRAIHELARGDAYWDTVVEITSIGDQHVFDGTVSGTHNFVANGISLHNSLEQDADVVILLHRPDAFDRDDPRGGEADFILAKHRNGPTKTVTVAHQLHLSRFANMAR

[4] = target: T3, Protein RecA (Mycobacterium tuberculosis, UniProt P9WHJ3); assay: Fluorescence Cell-Free Homogeneous Dose Retest to Identify Inhibitors of RecA-Intein Splicing Activity. [Related pubchem assays (depositor defined):AID2097, AID2223, AID489010, AID492950]; assay type: functional
T3 sequence (P9WHJ3 whole entry): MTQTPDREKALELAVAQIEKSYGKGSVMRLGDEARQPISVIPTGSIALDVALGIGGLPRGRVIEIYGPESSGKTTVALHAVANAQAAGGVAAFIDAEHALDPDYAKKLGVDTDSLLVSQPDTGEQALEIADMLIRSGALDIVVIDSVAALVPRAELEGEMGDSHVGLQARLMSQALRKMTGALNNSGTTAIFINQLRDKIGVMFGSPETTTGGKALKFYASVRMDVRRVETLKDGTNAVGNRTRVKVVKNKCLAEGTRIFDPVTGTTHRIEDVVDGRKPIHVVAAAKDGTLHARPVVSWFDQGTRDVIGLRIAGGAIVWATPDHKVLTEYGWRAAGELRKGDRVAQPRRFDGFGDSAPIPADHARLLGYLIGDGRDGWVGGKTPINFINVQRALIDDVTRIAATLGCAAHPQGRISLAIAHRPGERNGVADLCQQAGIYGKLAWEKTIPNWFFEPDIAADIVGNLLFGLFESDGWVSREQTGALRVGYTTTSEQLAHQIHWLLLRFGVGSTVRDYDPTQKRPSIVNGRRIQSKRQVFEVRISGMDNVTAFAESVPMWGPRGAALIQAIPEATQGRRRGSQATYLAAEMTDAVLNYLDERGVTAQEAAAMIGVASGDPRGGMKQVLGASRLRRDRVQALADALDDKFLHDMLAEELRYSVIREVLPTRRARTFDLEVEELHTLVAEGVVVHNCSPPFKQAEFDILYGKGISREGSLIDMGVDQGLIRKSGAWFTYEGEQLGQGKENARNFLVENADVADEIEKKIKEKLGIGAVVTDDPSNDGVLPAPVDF

[5] = target: Sphingosine 1-phosphate receptor 1 (Homo sapiens, UniProt P21453); assay type: functional;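 further: Tango beta-arrestin reporter U2OS cells stimulated with S1P near its EC80; inhibitor potency meaning antagonism of receptor activation by the natural agonist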
Chain of Sphingosine 1-phosphate receptor 1 (P21453 whole entry): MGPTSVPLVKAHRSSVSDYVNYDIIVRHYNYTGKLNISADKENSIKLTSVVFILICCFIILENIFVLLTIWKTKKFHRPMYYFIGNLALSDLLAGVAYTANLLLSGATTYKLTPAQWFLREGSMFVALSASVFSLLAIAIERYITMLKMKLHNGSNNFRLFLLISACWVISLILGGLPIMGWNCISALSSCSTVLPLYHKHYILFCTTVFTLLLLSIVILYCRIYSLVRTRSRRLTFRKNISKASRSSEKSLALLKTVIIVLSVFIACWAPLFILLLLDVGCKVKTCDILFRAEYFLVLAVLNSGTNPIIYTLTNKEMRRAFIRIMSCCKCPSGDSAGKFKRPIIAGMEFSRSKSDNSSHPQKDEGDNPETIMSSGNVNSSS

[6] = Luminescent dose response cell-based high throughput screening assay for inhibitors of the Janus kinase 2 mutant JAK2V617F. [Related pubchem assays: 1446 (Primary screen.), 1521 (Confirmation assay.), 1486 (Counter screen.)]; assay type: functional
[7] = target: T4, Sphingosine 1-phosphate receptor 4 (Homo sapiens, UniProt O95977); assay: Fluorescence dose response cell-based high throughput screening assay for antagonists of the Sphingosine 1-Phosphate Receptor 4 (S1P4). [Related pubchem assays: 1524 (Confirmation in triplicates.), 1510 (Primary screen.)]; assay type: functional
T4 sequence (O95977 whole entry): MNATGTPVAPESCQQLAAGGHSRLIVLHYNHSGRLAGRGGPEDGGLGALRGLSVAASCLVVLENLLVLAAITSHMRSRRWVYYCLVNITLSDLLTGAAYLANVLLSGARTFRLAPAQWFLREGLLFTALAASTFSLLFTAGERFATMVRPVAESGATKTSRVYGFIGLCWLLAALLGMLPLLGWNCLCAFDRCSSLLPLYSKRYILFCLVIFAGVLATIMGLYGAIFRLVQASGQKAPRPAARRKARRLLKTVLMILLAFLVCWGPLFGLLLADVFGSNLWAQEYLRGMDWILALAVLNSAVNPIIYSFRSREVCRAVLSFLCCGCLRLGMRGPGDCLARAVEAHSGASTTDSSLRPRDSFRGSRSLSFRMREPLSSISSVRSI

SMILES: CCOC(=O)c1c(C)[nH]c(C)c1C(=O)CSc1nnc(-c2cc(OC)c(OC)c(OC)c2)o1
- EC50 [1]: 12500 nM (active)

SMILES: CCC(C)[C@@H](NC(=O)OC(C)(C)C)c1nnc(S(=O)(=O)Cc2cccc(C)c2)o1 (stereo partly drawn)
- IC50 [2]: 3230 nM (active)
- AC50 [3]: 2310 nM (active)
- EC50 [4]: 2500 nM (active)
- IC50 [5]: > 49800 nM (not active)
- IC50 [6]: 826 nM (active)
- IC50 [7]: 2610 nM (active)

SMILES: COc1cccc(-c2cc(C(=O)Nc3cc(C)nn3-c3ccccc3)no2)c1
- EC50 [1]: 12000 nM (active)
